Laboratory results as given in PubChem BioAssay AID282 (DTP/NCI, 2004).
Values joined by “and” are separate entries in the source; they are usually repeats but may differ in a detail not shown here. Identical values can stand only once. Inconclusive results and toxic doses are left out.

Test system: BDF1 mice, L1210 terephthalanilide-resistant leukemia ip, survival T/C
Assay: NCI In Vivo Anticancer Drug Screen. Data for tumor model L1210 Leukemia resistant to A Terephthalanilide; NSC 38280 (intraperitoneal) in B6D2F1 (BDF1) mice
Details: endpoint: mean survival time, higher = longer survival
Procedure: The antitumor activity of compounds was measured in mice bearing transplantable tumors. Survival or tumor size were measured and the results are expressed as the measurement made in the treated group (T) divided by the measurement made in the vehicle treated control group (C). The tumor model used in this assay is L1210 Leukemia resistant to A Terephthalanilide; NSC 38280 (intraperitoneal) in B6D2F1 (BDF1) mice

[1] = dose: 10.0 mg/kg/injection, schedule: Q01DX010 (ip), vehicle: saline
[2] = dose: 20.0 mg/kg/injection, schedule: Q01DX010 (ip), vehicle: saline
[3] = dose: 40.0 mg/kg/injection, schedule: Q01DX010 (ip), vehicle: saline
[4] = dose: 80.0 mg/kg/injection, schedule: Q01DX010 (ip), vehicle: saline
[5] = dose: 1.0 mg/kg/injection, schedule: Q01DX Z (ip), vehicle: carboxymethylcellulose (CMC)
[6] = dose: 5.0 mg/kg/injection, schedule: Q01DX010 (ip), vehicle: saline
[7] = dose: 62.5 mg/kg/injection, schedule: Q01DX010 (ip), vehicle: saline
[8] = dose: 125.0 mg/kg/injection, schedule: Q01DX010 (ip), vehicle: saline
[9] = dose: 2.5 mg/kg/injection, schedule: Q01DX Z (ip), vehicle: carboxymethylcellulose (CMC)
[10] = dose: 5.0 mg/kg/injection, schedule: Q01DX Z (ip), vehicle: carboxymethylcellulose (CMC)
[11] = dose: 7.5 mg/kg/injection, schedule: Q01DX Z (ip), vehicle: carboxymethylcellulose (CMC)
[12] = dose: 10.0 mg/kg/injection, schedule: Q01DX Z (ip), vehicle: carboxymethylcellulose (CMC)
[13] = dose: 25.0 mg/kg/injection, schedule: Q01DX010 (ip), vehicle: saline
[14] = dose: 120.0 mg/kg/injection, schedule: Q01DX010 (ip), vehicle: saline

## Cn1c(N)nc2nc[nH]c2c1=S
[1]
  T/C: 103 % of control
dose: 16.0 mg/kg/injection, schedule: Q01DX Z (ip), vehicle: carboxymethylcellulose (CMC)
  T/C: 111 % of control
[2]
  T/C: 93 % of control
dose: 31.0 mg/kg/injection, schedule: Q01DX Z (ip), vehicle: carboxymethylcellulose (CMC)
  T/C: 120 % of control
dose: 37.5 mg/kg/injection, schedule: Q01DX Z (ip), vehicle: carboxymethylcellulose (CMC)
  T/C: 150 % of control
[3]
  T/C: 99 % of control
dose: 50.0 mg/kg/injection, schedule: Q01DX Z (ip), vehicle: carboxymethylcellulose (CMC)
  T/C: 154 % of control
dose: 75.0 mg/kg/injection, schedule: Q01DX Z (ip), vehicle: carboxymethylcellulose (CMC)
  T/C: 119 % of control
[4]
  T/C: 100 % of control
dose: 150.0 mg/kg/injection, schedule: Q01DX Z (ip), vehicle: carboxymethylcellulose (CMC)
  T/C: 150 % of control

## Oc1cc(CN(CCCl)CCCl)c(O)cc1CN(CCCl)CCCl
dose: 0.63 mg/kg/injection, schedule: Q01DX010 (ip), vehicle: saline
  T/C: 116 % of control and 120 % of control
[5]
  T/C: 121 % of control
[6]
  T/C: 108 % of control and 113 % of control
dose: 6.0 mg/kg/injection, schedule: Q01DX Z (ip), vehicle: carboxymethylcellulose (CMC)
  T/C: 150 % of control

## CCCCNc1ncnc2c1cnn2C
dose: 31.3 mg/kg/injection, schedule: Q01DX010 (ip), vehicle: saline
  T/C: 100 % of control
[7]
  T/C: 105 % of control and 108 % of control
[8]
  T/C: 89 % of control

## N=C(N)c1ccc(Nc2ccc(C(=N)N)cc2)cc1
dose: 3.0 mg/kg/injection, schedule: Q01DX010 (ip), vehicle: saline
  T/C: 94 % of control
dose: 6.0 mg/kg/injection, schedule: Q01DX010 (ip), vehicle: saline
  T/C: 91 % of control
dose: 7.5 mg/kg/injection, schedule: Q01DX Z (ip), vehicle: water
  T/C: 95 % of control
dose: 10.0 mg/kg/injection, schedule: Q01DX Z (ip), vehicle: water
  T/C: 95 % of control
dose: 12.0 mg/kg/injection, schedule: Q01DX010 (ip), vehicle: saline
  T/C: 95 % of control
dose: 15.0 mg/kg/injection, schedule: Q01DX Z (ip), vehicle: water
  T/C: 95 % of control
dose: 20.0 mg/kg/injection, schedule: Q01DX Z (ip), vehicle: water
  T/C: 103 % of control

## NC(=O)N(CCCl)N=O
dose: 0.5 mg/kg/injection, schedule: Q01DX010 (ip), vehicle: saline
  T/C: 162 % of control
dose: 1.0 mg/kg/injection, schedule: Q01DX010 (ip), vehicle: saline
  T/C: 165 % of control
dose: 1.0 mg/kg/injection, schedule: Q01DX Z (ip), vehicle: saline
  T/C: 348 % of control
dose: 2.0 mg/kg/injection, schedule: Q01DX Z (ip), vehicle: saline
  T/C: 252 % of control
dose: 6.0 mg/kg/injection, schedule: Q01DX Z (ip), vehicle: saline
  T/C: 110 % of control

## O=C(Nc1ccc(C2=NCCCN2)cc1)c1ccc(C(=O)Nc2ccc(C3=NCCCN3)cc2)cc1
dose: 1.0 mg/kg/injection, schedule: Q01DX010 (ip), vehicle: other
  T/C: 113 % of control and 114 % of control
dose: 2.0 mg/kg/injection, schedule: Q01DX010 (ip), vehicle: other
  T/C: 116 % of control
dose: 4.0 mg/kg/injection, schedule: Q01DX010 (ip), vehicle: other
  T/C: 123 % of control and 120 % of control
dose: 8.0 mg/kg/injection, schedule: Q01DX010 (ip), vehicle: other
  T/C: 90 % of control and 95 % of control

## CN=C(NC)c1ccc(NC(=O)Nc2ccc(NC(=O)Nc3ccc(C(=NC)NC)cc3)cc2)cc1
dose: 13.3 mg/kg/injection, schedule: Q01DX010 (ip), vehicle: saline
  T/C: 101 % of control
[2]
  T/C: 101 % of control

## O=c1cn[nH]c(=O)[nH]1
dose: 62.0 mg/kg/injection, schedule: Q01DX Z (ip), vehicle: carboxymethylcellulose (CMC)
  T/C: 101 % of control
[7]
  T/C: 97 % of control and 101 % of control
[8]
  T/C: 97 % of control and 105 % of control
dose: 125.0 mg/kg/injection, schedule: Q01DX Z (ip), vehicle: carboxymethylcellulose (CMC)
  T/C: 101 % of control
dose: 250.0 mg/kg/injection, schedule: Q01DX010 (ip), vehicle: saline
  T/C: 106 % of control and 113 % of control
dose: 250.0 mg/kg/injection, schedule: Q01DX Z (ip), vehicle: carboxymethylcellulose (CMC)
  T/C: 106 % of control
dose: 500.0 mg/kg/injection, schedule: Q01DX010 (ip), vehicle: saline
  T/C: 123 % of control and 115 % of control
dose: 500.0 mg/kg/injection, schedule: Q01DX Z (ip), vehicle: carboxymethylcellulose (CMC)
  T/C: 113 % of control

## NC(Cc1ccc(N(CCCl)CCCl)cc1)C(=O)O (stereo unspecified)
dose: 0.31 mg/kg/injection, schedule: Q01DX Z (ip), vehicle: carboxymethylcellulose (CMC)
  T/C: 113 % of control
dose: 0.62 mg/kg/injection, schedule: Q01DX Z (ip), vehicle: carboxymethylcellulose (CMC)
  T/C: 114 % of control
dose: 2.0 mg/kg/injection, schedule: Q01DX Z (ip), vehicle: carboxymethylcellulose (CMC)
  T/C: 174 % of control
dose: 2.5 mg/kg/injection, schedule: Q01DX010 (ip), vehicle: saline
  T/C: 183 % of control
[9]
  T/C: 162 % of control
dose: 4.0 mg/kg/injection, schedule: Q01DX Z (ip), vehicle: carboxymethylcellulose (CMC)
  T/C: 184 % of control
[6]
  T/C: 166 % of control
[10]
  T/C: 212 % of control
[11]
  T/C: 172 % of control
[12]
  T/C: 181 % of control
dose: 15.0 mg/kg/injection, schedule: Q01DX Z (ip), vehicle: carboxymethylcellulose (CMC)
  T/C: 120 % of control

## Nc1ncnc2c1ccn2C1OC(CO)C(O)C1O (stereo unspecified)
dose: 0.23 mg/kg/injection, schedule: Q01DX Z (ip), vehicle: saline
  T/C: 98 % of control
dose: 0.47 mg/kg/injection, schedule: Q01DX Z (ip), vehicle: saline
  T/C: 113 % of control
dose: 0.93 mg/kg/injection, schedule: Q01DX Z (ip), vehicle: saline
  T/C: 109 % of control
dose: 1.87 mg/kg/injection, schedule: Q01DX Z (ip), vehicle: saline
  T/C: 116 % of control
[9]
  T/C: 103 % of control

## N=[N+]=CC(=O)OCC(N)C(=O)O (stereo unspecified)
[5]
  T/C: 122 % of control
dose: 3.75 mg/kg/injection, schedule: Q01DX Z (ip), vehicle: carboxymethylcellulose (CMC)
  T/C: 168 % of control
[10]
  T/C: 171 % of control
dose: 6.25 mg/kg/injection, schedule: Q01DX010 (ip), vehicle: saline
  T/C: 156 % of control
[11]
  T/C: 183 % of control
[12]
  T/C: 174 % of control
dose: 12.5 mg/kg/injection, schedule: Q01DX010 (ip), vehicle: saline
  T/C: 118 % of control
[13]
  T/C: 97 % of control
dose: 30.0 mg/kg/injection, schedule: Q01DX Z (ip), vehicle: carboxymethylcellulose (CMC)
  T/C: 115 % of control

## NC12CC3CC(CC(C3)C1)C2
[13]
  T/C: 108 % of control
dose: 50.0 mg/kg/injection, schedule: Q01DX010 (ip), vehicle: saline
  T/C: 106 % of control
dose: 100.0 mg/kg/injection, schedule: Q01DX010 (ip), vehicle: saline
  T/C: 101 % of control

## CN(C)c1ccc(Nc2c3ccccc3nc3ccccc23)cc1
dose: 36.0 mg/kg/injection, schedule: Q01DX010 (ip), vehicle: saline
  T/C: 108 % of control
dose: 54.0 mg/kg/injection, schedule: Q01DX010 (ip), vehicle: saline
  T/C: 102 % of control and 111 % of control
[4]
  T/C: 97 % of control and 109 % of control
[14]
  T/C: 119 % of control

## O=C(Nc1ccc(C2=NCCN2)cc1)Nc1cccc(NC(=O)Nc2ccc(C3=NCCN3)cc2)c1
dose: 60.0 mg/kg/injection, schedule: Q01DX010 (ip), vehicle: saline
  T/C: 96 % of control and 110 % of control
[14]
  T/C: 92 % of control and 116 % of control
dose: 240.0 mg/kg/injection, schedule: Q01DX010 (ip), vehicle: saline
  T/C: 96 % of control and 100 % of control
dose: 480.0 mg/kg/injection, schedule: Q01DX010 (ip), vehicle: saline
  T/C: 86 % of control and 87 % of control

## CC1CCOS(=O)O1 (stereo unspecified)
[1]
  T/C: 95 % of control
[2]
  T/C: 86 % of control
dose: 37.5 mg/kg/injection, schedule: Q01DX Z (ip), vehicle: saline
  T/C: 112 % of control
[3]
  T/C: 87 % of control
dose: 75.0 mg/kg/injection, schedule: Q01DX Z (ip), vehicle: saline
  T/C: 120 % of control
dose: 100.0 mg/kg/injection, schedule: Q01DX Z (ip), vehicle: saline
  T/C: 103 % of control
dose: 150.0 mg/kg/injection, schedule: Q01DX Z (ip), vehicle: saline
  T/C: 87 % of control
